# Reference: patent EP0993306B1, “PERFLUOROALKYLATED OLIGOMER COMPOUNDS, PROCESS FOR PREPARING THE SAME AND THEIR USE IN NMR DIAGNOSIS” (SCHERING AKTIENGESELLSCHAFT, priority 1997, dated 1999)
# Assays:
# [1] = T1 relaxivity in human plasma (Minispec pc 20); assay type: physicochemical; conditions: for R^1 (T^1-Relaxivity): 0.47 T, 20 MHz, 37 °C, Humanplasma, normalised to one metal atom
# [2] = Retention of the contrast metal at the injection site (paw); assay type: in vivo, Meerschweinchen; conditions: 10 µmol/kg interstitial, MW ± SD, n=3
# Excerpt: Nach s.c. Gabe von 10 µmol Gesamtgadolinium (Beispiel 19)/kg Körpergewicht in die Meerschweinchenpfote wurde die Retention des Metalls am Injektionsort zu verschiedenen Zeitpunkten untersucht.
# [3] = rat, in vivo, iv, 100 umol/kg
# Description: Hierfür wurde nach einmaliger intravenöser Applikation (via einer Caudalvene) der Substanzen (Dosis: ≈ 100 µmol Metall pro kg Körpergewicht) die Substanzkonzentration im Blut (basierend auf dem Gd- bzw. Dy-Gehalt) über einen Zeitraum bis zu 120 Minuten p. i. mittels ICP-AES bestimmt. Die pharmakokinetischen Parameter: Verteilungsvolumen (Vss), Gesamtclearance (CLtot) und Eliminationshalbwertszeit (tb) wurden mit einem speziellen Computerprogramm (TOPFIT 2.0; Thomae, Schering, Gödecke) berechnet, wobei ein Zwei-Kompartment-Distributionsmodell zu Grunde gelegt wurde.
# Die Gd- und Dy-Gehalte im Blut wurden mittels ICP-AES bestimmt.
# Hierfür wurde nach einmaliger intravenöser Applikation (via einer Caudalvene) der Substanzen (Dosis: ≈ 100 µmol Metall pro kg Körpergewicht) die Substanzkonzentration im Blut (basierend auf dem Metallgehalt) über einen Zeitraum bis zu 120 Minuten p. i. mittels ICP-AES bestimmt. Die pharmakokinetischen Parameter: Verteilungsvolumen (Vss), Gesamtclearance (CLtot) und Eliminationshalbwertszeit (tb) wurden mit einem speziellen Computerprogramm (TOPFIT 2.0; Thomae, Schering, Gödecke) berechnet, wobei ein Zwei-Kompartment-Distributionsmodell zu Grunde gelegt wurde.
# [4] = Lymph node accumulation in stimulated guinea pigs after s.c. administration (ICP-AES); assay type: in vivo, Meerschweinchen; conditions: 10 µmol/kg s.c. hind paw, MW ± SD, n=3
# Excerpt: Die erfindungsgemäßen Verbindungen erfüllen alle Voraussetzungen, die von Kontrastmitteln in der indirekten NMR-Lymphographie verlangt werden: gute lokale Verträglichkeit, rascher Abtransport vom Injektionsort, rasche und weitestgehend vollständige Ausscheidung aus dem Gesamtorganismus. Ferner zeigen sie eine hohe Anreicherung über mehrere Lymphknotenstationen und erlauben damit relevante diagnostische Aussagen. So konnte am Meerschweinchenmodell eine hohe Anreicherung über mehrere Lymphknotenstationen (popliteal, inguinal, iliakal) nach s.c. Gabe (2,5-10 µmol/kg Körpergewicht, Injektion in Zwischenzehenräume der Hinterpfote) gezeigt werden. In besonders geeigneten Fällen wurden so in der zweiten (inguinal) und dritten (iliakal) Station noch Gadoliniumkonzentrationen von jeweils ≥ 200 bzw. ≥ 300 µmol/l erhalten. Üblicherweise sind mit den erfindungsgemäßen Verbindungen Lymphknotenkonzentrationen bis zu 1000 µmol/l zu erhalten.
# Der Gadolinium-Komplex des Beispiels 19 wurde 30 Min./ 90 Min. nach subkutaner Gabe (10 µmol Gesamtgadolinium/kg KG, Hinterpfote s.c.) an stimulierten Meerschweinchen (komplettes Freund-Adjuvant; jeweils 0,1 ml i.m. in den rechten und linken Ober- und Unterschenkel; 2 Wochen vor Gabe der Prüfsubstanz) hinsichtlich ihrer Lymphknotenanreicherung in drei aufeinanderfolgenden Lymphknotenstationen (popliteal, inguinal, iliakal) untersucht. Hierbei wurden die nachfolgend aufgelisteten Ergebnisse (Ermittlung der Gadolinium-Konzentration mittels ICP-AES) erhalten: […]
# [5] = Excretion after s.c. administration: metal retention in liver, kidneys, spleen; assay type: in vivo, Meerschweinchen; conditions: 10 µmol/kg interstitial, MW ± SD, n=2
# Excerpt: Nach subkutaner Gabe von 10 µmol Gesamtgadolinium (Beispiel 19) /kg Körpergewicht in die Hinterpfote des Meerschweines wurde 7 Tage nach Applikation die Retention des Metalls in der Leber, in den Nieren sowie in der Milz untersucht.
# [6] = 39 °C, 0,47 T; cited from earlier work
# [7] = Diffusibility: in vivo comparison with an intravasal and an extracellular contrast agent, ligated renal vessels; conditions: i.v. 20 µmol/kg each, ligated renal vessels, relative to Verbindung 2 set as 100 %
# Description: (§1) Als Versuchstiere dienten drei 250 g schwere, männliche (Schering-SPF-) Ratten. Den Tieren wurden die Nierengefäße abgebunden, um eine renale Eliminierung zu verhindern und bei angenommener vernachlässigbarer faekaler Eliminierung ein Maß für Diffusibilität der erfindungsgemäßen Formulierung aus dem Blut in das umgebende Gewebe zu erhalten. Je Tier wurden 0.5 ml (jeweils 10 mmol/L) der folgenden Kontrastmittel-Lösung intravenös appliziert: Gemisch aus je 1 Teil der Verbindung des Beispiels 1g, im folgenden Verbindung 1 genannt, des intravasalen Kontrastmittels Eu-DTPA-Albumin, im folgenden Verbindung 2 genannt, und des extrazellulären Kontrastmittels Dy-DTPA, im folgenden Verbindung 3 genannt. Über einen Katheter in der Arteria carotis communis wurden Blutproben zu folgenden Zeitpunkten entnommen: 15, 30, 45, 60, 90 sec, 3, 5, 10, 15 min p.i. In den gewonnenen Blutproben wurden jeweils parallel die Konzentrationen an Gadolinium (Gd), Europium (Eu) und Dysprosium (Dy) mittels Atomemissionsspektrometrie (ICP-AES) gemessen. Der im Blutraum verbliebene Anteil des intravasalen Kontrastmittels Verbindung 2 (Eu) wurde als 100 % gesetzt. Der im Blutraum verbliebene Anteil der erfindungsgemäßen Formulierung Verbindung 1 (Gd) und der Verbindung 3 (Dy, extrazelluläre Vergleichssubstanz) konnte durch die unterschiedliche Markierung im gleichen Tier verglichen werden und wurde prozentual ins Verhältnis zur Konzentration der Verbindung 2 gesetzt. Damit liefern diese Daten Angaben über den Verbleib der Verbindungen im Intravasalraum.
# [8] = as above; parameters: species or system Ratte; conditions: i.v. 20 µmol/kg each, relative to Verbindung 2 set as 100 %
# Description: as §1
compound,measurement,setting,value
"1,4,7-Tris(N-3,3,6-tris(carboxylatomethyl)-6-[N-3-aza-2,5-dioxo-pentan-1,5-diyl]-3,6,9-triazaundecan-1,11-disäure, Gd-Komplex, Mononatriumsalz}-10-2H,2H,4H,4H,5H,5H-3-oxa-perfluor-tridecanoyl)-1,4,7,10-tetraazacyclododecan [Beispiel 8 b)]",R^1 (T^1-Relaxivity),[1],"20,6 L/mmol * sec"
"1,4,7-Tris{1,4,7-tris-(N-carboxylatomethyl)-10-[N-(4,7-diaza-3,6,9-trioxo)-nonan-2,9-diyl]-1,4,7,10-tetraazacyclododecan, Gd-Komplex-10-(N-22F,22F,22F,21F,21F, 20F,20F,19F, 19F, 18F, 18F, 17F,17F, 16F, 16F, 15F, 15F-heptadecafluor-12-oxadocosanoyl)-1,4,7,10-tetraazacyclododecan [Beispiel 14 e)]",R^1 (T^1-Relaxivity),[1],"19,3 L/mmol * sec"
"1,4,7-Tris{N-3,9-bis(carboxylatomethyl)-6-[N-3-aza-2,5-dioxo-pentan-1,5-diyl]-3,6,9-triazaundecan-1-carboxylato-11-säure, Gd-Komplex, Natriumsalz}-10-[Nacetyl-(2-amino-N-ethyl-N-perfluoroctylsulfonyl)]-1,4,7,10-tetraazacyclododecan [Beispiel 18 d)]",R^1 (T^1-Relaxivity),[1],"23,0 L/mmol * sec"
"1,4,7-Tris{N-[3,9-bis{N-carboxylatomethyl)]-6-[N-{3-aza-2,5-dioxo-pentan)-1,5-diyl]-3,6,9-triazaundecan-1-carboxylato-11-säure, Gd-Komplex, Mononatriumsalz}-10-N-{undecanoyl-〈11-amino-N-[acetyl-(2-amino-N-ethyl-N-perfluoroctylsulfonyl)]) }-1,4,7,10-tetraazacyclododecan [Beispiel 25 f)]",R^1 (T^1-Relaxivity),[1],"15,1 L/mmol * sec"
"1,4,7-Tris{N-hexanoyl-2,6-bis〈*amino-N-acetyl-2-[3,9-bis(N-carboxylato-methyl)-6-yl-3,6,9-triazaundecan-1-carboxylato-11-säure, Gd-Komplex, Mononatriumsalz]〉}-10-[N-acetyl-(2-amino-N-ethyl-N-perfluoroctylsulfonyl)]-1,4,7,10-tetraazacyclododecan [Beispiel 26 d)]",R^1 (T^1-Relaxivity),[1],"13,0 L/mmol * sec"
"1,4,7-Tris{N-hexanoyl-2,6-bis〈amino-N-acetyl-2-[aminopropanoyl-(2-yl)]-[1,4,7-tris(Ncarboxylatomethyl)-1,4,7,10-tetraazacyclododecan-10-yl, Gd-Komplex]〉}-10-[N-acetyl-(2-amino-N-ethyl-N-perfluoroctylsulfonyl)]-1,4,7,10-tetraazacyclododecan [Beispiel 27]",R^1 (T^1-Relaxivity),[1],"16,1 L/mmol * sec"
"CCN(CC(=O)N1CCN(C(=O)CNC(=O)CNC(=O)C(C)N2CCN(CC(=O)[O-])CCN(CC(=O)[O-])CCN(CC(=O)[O-])CC2)CCN(C(=O)CNC(=O)CNC(=O)C(C)N2CCN(CC(=O)[O-])CCN(CC(=O)[O-])CCN(CC(=O)[O-])CC2)CCN(C(=O)CNC(=O)CNC(=O)C(C)N2CCN(CC(=O)[O-])CCN(CC(=O)[O-])CCN(CC(=O)[O-])CC2)CC1)S(=O)(=O)C(F)(F)C(F)(F)C(F)(F)C(F)(F)C(F)(F)C(F)(F)C(F)(F)C(F)(F)F.[Gd+3].[Gd+3].[Gd+3] (centres unmarked) [Beispiel 19, 1,4,7-Tris{1,4,7-tris(N-carboxylatomethyl)-10-[N-(4,7-diaza-3,6,9-trioxo)-nonan-2,9-diyl]-1,4,7,10-tetraazacyclododecan, Gd-Komplex}-10-[N-acetyl-(2-amino-N-ethyl-N-perfluor-octylsulfonyl)]-1,4,7,10-tetraazacyclododecan]",Gadolinium-Konzentration an der Injektionsstelle (Pfote),[2]; 30 min p.i.,"48,4 ± 10,4 % Dosis"
same,Gadolinium-Konzentration an der Injektionsstelle (Pfote),[2]; 90 min p.i.,"8,0 ± 1,7 % Dosis"
same,Gadolinium-Konzentration an der Injektionsstelle (Pfote),[2]; 7 d p.i.,"0,7 ± 0,6 % Dosis"
same,R^1 (T^1-Relaxivity),[1],"21,4 L/mmol * sec"
same,"Relaxivity (r1, Plasma)",[1]; plasma,≈ 19.5 1*mmol^- ^1*s^-1
same,CL tot,[3],0.94 mL/min/kg
same,Vss,[3],0.12 L/kg
same,"Gd-Konzentration, Blut",[4]; 30 min p.i.,24 ± 3 µmol/L
same,"Gd-Konzentration, Lymphknoten iliakal",[4]; 30 min p.i.,50 ± 18 µmol/L
same,"Gd-Konzentration, Lymphknoten inguinal profund",[4]; 30 min p.i.,43 ± 41 µmol/L
same,"Gd-Konzentration, Lymphknoten popliteal",[4]; 30 min p.i.,345 ± 319 µmol/L
same,"Gd-Konzentration, Urin",[4]; 30 min p.i.,261 ± 167 µmol/L
same,"Gd-Konzentration, Blut",[4]; 90 min p.i.,25 ± 4 µmol/L
same,"Gd-Konzentration, Lymphknoten iliakal",[4]; 90 min p.i.,20 ± 8 µmol/L
same,"Gd-Konzentration, Lymphknoten inguinal profund",[4]; 90 min p.i.,9 ± 2 µmol/L
same,"Gd-Konzentration, Lymphknoten popliteal",[4]; 90 min p.i.,75 ± 20 µmol/L
same,"Gd-Konzentration, Urin",[4]; 90 min p.i.,348 ± 119 µmol/L
same,"Gadolinium-Gehalt in den Organen 7 d p.i., Leber",[5],0.09 ± 0.09 % Dosis
same,"Gadolinium-Gehalt in den Organen 7 d p.i., Milz",[5],0.00 ± 0.01 % Dosis
same,"Gadolinium-Gehalt in den Organen 7 d p.i., Nieren",[5],0.06 ± 0.04 % Dosis
"C[NH2+]C[C@@H](O)[C@@H](O)[C@H](O)[C@@H](O)CO.C[NH2+]C[C@@H](O)[C@@H](O)[C@H](O)[C@@H](O)CO.O=C([O-])CN(CCN(CC(=O)[O-])CC(=O)[O-])CCN(CC(=O)[O-])CC(=O)[O-].[Gd+3] [Magnevist ®, Di-N-methylglucaminsalz des Gd-DTPA-Komplexes, reference compound]",R^1 (T^1-Relaxivity),[1],"4,8 L/mmol * sec"
same,T^1-Relaxivity,[6],"3,5 - 4,9 mM^-1 · sec^-1"
CNC(=O)CN(CCN(CCN(CC(=O)[O-])CC(=O)NC)CC(=O)[O-])CC(=O)[O-].[Gd+3] [Omniscan®],T^1-Relaxivity,[6],"3,5 - 4,9 mM^-1 · sec^-1"
CC(O)CN1CCN(CC(=O)[O-])CCN(CC(=O)[O-])CCN(CC(=O)[O-])CC1.[Gd+3] (centres unmarked) [Pro Hance®],T^1-Relaxivity,[6],"3,5 - 4,9 mM^-1 · sec^-1"
Dy-DTPA [reference compound],Prozentsatz der im Blutraum verbliebenen Dosis,[7]; 30 sec p.i.,48%
same,Prozentsatz der im Blutraum verbliebenen Dosis,[7]; 3 min p.i.,25%
same,Prozentsatz der im Blutraum verbliebenen Dosis,[7]; 10 min p.i.,21%
same,Vss,[3],0.17 L/kg
"Gadolinium-III-Komplex des 1,4,7,10-Tetracarboxymethyl-1,4,7,10-tetraazacyclododecans [Dotarem®]",T^1-Relaxivity,[6],"3,5 - 4,9 mM^-1 · sec^-1"
Verbindung 2: intravasales Kontrastmittel Eu-DTPA-Albumin,Prozentsatz der im Blutraum verbliebenen Dosis,[8]; 30 sec p.i.,100%
same,Prozentsatz der im Blutraum verbliebenen Dosis,[8]; 3 min p.i.,100%
same,Prozentsatz der im Blutraum verbliebenen Dosis,[8]; 10 min p.i.,100%
